Data: patent US20250282776A1, “Bicyclic TLR7 Agonists and Uses Thereof” (Bristol-Myers Squibb Company, priority 2024, published 2025)

Legend:
human TLR7 (hTLR7) = target: T1, human TLR7 (hTLR7) (Homo sapiens, UniProt Q9NYK1); test: Human TLR7 agonist activity assay (HEK-Blue TLR7 SEAP reporter); format: cell-based; conditions: HEK-Blue TLR7 cells, 18 h incubation, Quanti-Blue, OD 620 nm, some values average of multiple measurements
T1 construct: host or cells: HEK-Blue TLR7 cells (engineered human embryonic kidney cells)
T1 sequence (Q9NYK1 27-1049): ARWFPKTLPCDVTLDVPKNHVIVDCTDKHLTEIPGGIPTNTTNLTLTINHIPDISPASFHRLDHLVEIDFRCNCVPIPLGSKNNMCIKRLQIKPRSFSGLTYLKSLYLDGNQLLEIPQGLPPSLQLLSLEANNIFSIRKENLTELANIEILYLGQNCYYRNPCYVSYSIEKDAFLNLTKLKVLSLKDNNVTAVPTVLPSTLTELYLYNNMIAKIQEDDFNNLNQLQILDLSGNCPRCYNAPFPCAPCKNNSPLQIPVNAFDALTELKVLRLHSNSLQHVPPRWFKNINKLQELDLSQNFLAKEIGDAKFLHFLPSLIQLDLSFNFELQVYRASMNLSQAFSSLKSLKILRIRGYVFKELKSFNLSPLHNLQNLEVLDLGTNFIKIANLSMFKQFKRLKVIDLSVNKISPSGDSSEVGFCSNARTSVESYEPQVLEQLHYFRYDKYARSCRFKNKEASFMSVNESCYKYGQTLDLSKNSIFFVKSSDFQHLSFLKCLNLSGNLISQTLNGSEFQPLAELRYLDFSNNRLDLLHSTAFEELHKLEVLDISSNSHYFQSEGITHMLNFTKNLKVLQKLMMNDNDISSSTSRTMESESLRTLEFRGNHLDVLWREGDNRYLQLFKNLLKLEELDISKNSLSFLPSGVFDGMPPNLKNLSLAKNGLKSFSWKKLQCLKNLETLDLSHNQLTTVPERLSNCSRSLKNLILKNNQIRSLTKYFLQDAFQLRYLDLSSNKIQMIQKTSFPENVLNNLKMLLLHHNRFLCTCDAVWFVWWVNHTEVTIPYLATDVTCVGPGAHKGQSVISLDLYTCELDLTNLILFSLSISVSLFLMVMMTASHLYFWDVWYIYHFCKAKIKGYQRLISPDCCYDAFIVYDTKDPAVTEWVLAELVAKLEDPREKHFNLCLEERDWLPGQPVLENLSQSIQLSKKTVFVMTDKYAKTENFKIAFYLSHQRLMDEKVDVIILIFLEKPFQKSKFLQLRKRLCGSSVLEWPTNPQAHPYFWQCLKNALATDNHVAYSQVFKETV
Description: (§1) This procedure describes a method for assaying human TLR7 (hTLR7) and human TLR8 (hTLR8) agonist activity of the compounds disclosed herein.
(§2) HEK-Blue™ TLR7 cells were added to each well of a 384-well tissue-culture plate (15,000 cells per well) and incubated 16-18 h at 37° C., 5% CO2. Compounds (100 nL) were dispensed into wells containing the HEK-Blue™ TLR cells and the treated cells were incubated at 37° C., 5% CO2. After 18 h, ten microliters 5 of freshly prepared Quanti-Blue™ reagent (Invivogen) was added to each well and incubated for 30 min (37° C., […]). SLAP levels were measured using an Envision plate reader (OD=620 nm). The half maximal effective concentration values (ECSO; compound concentration which induced a response halfway between the assay baseline and maximum) were calculated. Some of the reported activities were the average of multiple measurements.

human TLR8 (hTLR8) = target: T2, human TLR8 (hTLR8) (Homo sapiens, UniProt Q9NR97); test: Human TLR8 agonist activity assay (measured in a similar manner); format: cell-based; conditions: HEK-Blue TLR cells, SEAP reporter, measured in a similar manner to TLR7; some values average of multiple measurements
T2 construct: expressed in transfected cells
T2 sequence (Q9NR97 27-1041): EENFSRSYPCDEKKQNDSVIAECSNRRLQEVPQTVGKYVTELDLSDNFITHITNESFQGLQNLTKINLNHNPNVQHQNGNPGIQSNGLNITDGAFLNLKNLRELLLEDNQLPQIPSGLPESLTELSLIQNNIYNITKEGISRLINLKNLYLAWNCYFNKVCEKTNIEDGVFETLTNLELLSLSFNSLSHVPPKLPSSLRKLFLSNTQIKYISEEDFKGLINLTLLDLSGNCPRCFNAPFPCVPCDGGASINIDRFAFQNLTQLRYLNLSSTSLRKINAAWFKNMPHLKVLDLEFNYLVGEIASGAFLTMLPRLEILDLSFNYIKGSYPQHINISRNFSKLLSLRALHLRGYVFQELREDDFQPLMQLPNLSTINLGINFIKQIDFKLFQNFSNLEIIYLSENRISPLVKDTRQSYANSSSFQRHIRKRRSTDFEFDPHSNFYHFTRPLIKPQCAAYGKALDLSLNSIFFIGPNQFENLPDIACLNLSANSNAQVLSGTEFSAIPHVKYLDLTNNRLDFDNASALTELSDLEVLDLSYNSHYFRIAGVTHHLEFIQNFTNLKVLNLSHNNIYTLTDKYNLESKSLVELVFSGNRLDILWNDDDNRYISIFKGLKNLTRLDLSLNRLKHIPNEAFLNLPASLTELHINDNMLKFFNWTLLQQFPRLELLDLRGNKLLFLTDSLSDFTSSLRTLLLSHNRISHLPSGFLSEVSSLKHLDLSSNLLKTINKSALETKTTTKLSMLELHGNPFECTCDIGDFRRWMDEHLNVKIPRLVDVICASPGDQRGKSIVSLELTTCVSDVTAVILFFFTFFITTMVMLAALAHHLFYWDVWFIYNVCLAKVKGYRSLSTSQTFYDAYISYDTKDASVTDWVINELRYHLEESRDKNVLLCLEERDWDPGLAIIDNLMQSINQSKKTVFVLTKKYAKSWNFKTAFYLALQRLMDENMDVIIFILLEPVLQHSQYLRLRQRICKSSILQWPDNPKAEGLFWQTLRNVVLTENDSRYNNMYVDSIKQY
Description: as §1
as §2, with “The half maximal effective concentration values (ECSO; compound concentration which induced a response halfway between the assay baseline and maximum) were calculated.” left out
TLR8 activity was measured in a similar manner.

SMILES | EC50 (human TLR7 (hTLR7)) [nM] | EC50 (human TLR8 (hTLR8)) [nM]
CCCCN(c1nc(N)nc2cn(Cc3ccc(CN4CCCCC4)cc3OC)nc12)C(C)CO (racemic) [Compound 49, 2-((5-amino-2-(2-methoxy-4-(piperidin-1-ylmethyl)benzyl)-2H-pyrazolo[4,3-d]pyrimidin-7-yl)(butyl)amino)propan-1-ol] | 385 | 682
CCCCN(c1nc(N)nc2cn(Cc3ccc(CN4CCCCC4)cc3OC)nc12)C(C)CO (single isomer, unassigned) [Compound 49-1, 2-((5-amino-2-(2-methoxy-4-(piperidin-1-ylmethyl)benzyl)-2H-pyrazolo[4,3-d]pyrimidin-7-yl)(butyl)amino)propan-1-ol] | 374 | 949
CCCCN(c1nc(N)nc2cn(Cc3ccc(CN4CCCCC4)cc3OC)nc12)C(C)CO (single isomer, unassigned) [Compound 49-2, 2-((5-amino-2-(2-methoxy-4-(piperidin-1-ylmethyl)benzyl)-2H-pyrazolo[4,3-d]pyrimidin-7-yl)(butyl)amino)propan-1-ol] | 385 | 682
CCCCN(CCO)c1nc(N)nc2cn(Cc3ccc(CNC4CCC4)cc3OC)nc12 [Compound 1] | 1290 | 1140
CCCCN(CCO)c1nc(N)nc2cn(Cc3ccc(CN4CCCCC4)cc3OC)nc12 [Compound 2] | 1340 | 1010
CCCCN(CCO)c1nc(N)nc2cn(Cc3ccc(CNC4CCOCC4)cc3OC)nc12 [Compound 3] | 970 | 596
CCCCN(CCO)c1nc(N)nc2cn(Cc3ccc(CN4CCCC4)cc3OC)nc12 [Compound 4] | 694 | 633
CCCCN(CCO)c1nc(N)nc2cn(Cc3ccc(CN4CC(OC)C4)cc3OC)nc12 [Compound 5] | 643 | 700
CCCCN(CCO)c1nc(N)nc2cn(Cc3ccc(CN4CC5(CC(OC)C5)C4)cc3OC)nc12 [Compound 6] | 680 | 892
CCCCN(CCO)c1nc(N)nc2cn(Cc3ccc(CNC(C)(C)C)cc3OC)nc12 [Compound 7] | 969 | 602
CCCCN(CCO)c1nc(N)nc2cn(Cc3ccc(CNCC(C)(C)O)cc3OC)nc12 [Compound 9] | 1620 | 1250
CCCN(CCO)c1nc(N)nc2cn(Cc3ccc(CNC4CCC4)cc3OC)nc12 [Compound 43] | – | 1740
CCCCN(CCO)c1nc(N)nc2cn(Cc3ccc(CNCC4CC5(CCC5)C4)c4cccnc34)nc12 [Compound 67] | – | 2160
CCC[C@@H](CO)N(C)c1nc(N)nc2cn(Cc3ccc(CN4CCCC4)cc3OC)nc12 [Compound 87] | – | 1820
CCCCN(CCO)c1nc(N)nc2cn(Cc3cnc(CN[C@H]4C[C@H](OC)C4)cc3OC)nc12 [Compound 124] | – | 1870
CCCCN(CCO)c1nc(N)nc2cn(Cc3ccc(CNCCO)cc3C(F)F)nc12 [Compound 129] | – | 2710
CCCCN(CCO)c1nc(N)nc2cn(Cc3ccc(CNC4CC5(COC5)C4)cc3)nc12 [Compound 159] | – | 1190
CCCCN(CCO)c1nc(N)nc2cn(Cc3ccc(CNCCO)cc3)nc12 [Compound 160] | – | 1970
CCCCN(CCO)c1nc(N)nc2cn(Cc3ccc(CNC4(COC)CCOCC4)cc3OC)nc12 [Compound 165] | – | 460
CCCCN(CCO)c1nc(N)nc2cn(Cc3ccc(CNC4(C)CCC4)cc3C(F)F)nc12 [Compound 167] | – | 1610
CCCCN(CCO)c1nc(N)nc2cn(Cc3ccc(CNC4CCC(F)(F)CC4)c4scnc34)nc12 [Compound 203] | – | 2400

Second part, the compound after the results:

EC50 (human TLR7 (hTLR7)) [nM] | EC50 (human TLR8 (hTLR8)) [nM] | SMILES
322 | 202 | CCCCN(CCO)c1nc(N)nc2cn(Cc3ccc(CNC4CCOC(C)(C)C4)cc3OC)nc12 (racemic) [Compound 103, 2-((5-Amino-2-(4-(((2,2-dimethyltetrahydro-2H-pyran-4-yl)amino)methyl)-2-methoxybenzyl)-2H-pyrazolo[4,3-d]pyrimidin-7-yl)(butyl)amino) ethan-1-ol]
654 | 453 | CCCCN(CCO)c1nc(N)nc2cn(Cc3ccc(CNC4CCOC(C)(C)C4)cc3OC)nc12 (single isomer, unassigned) [Compound 111, 2-((5-Amino-2-(4-(((2,2-dimethyltetrahydro-2H-pyran-4-yl)amino)methyl)-2-methoxybenzyl)-2H-pyrazolo[4,3-d]pyrimidin-7-yl)(butyl)amino) ethan-1-ol]
585 | 562 | CCCCN(CCO)c1nc(N)nc2cn(Cc3ccc(CNC4CCOC(C)(C)C4)cc3OC)nc12 (single isomer, unassigned) [Compound 112, 2-((5-Amino-2-(4-(((2,2-dimethyltetrahydro-2H-pyran-4-yl)amino)methyl)-2-methoxybenzyl)-2H-pyrazolo[4,3-d]pyrimidin-7-yl)(butyl)amino) ethan-1-ol]
1360 | 564 | CCCCN(CCO)c1nc(N)nc2cn(Cc3ccc(CNC4CCOC(C)C4)cc3OC)nc12 (single isomer, unassigned) [Compound 121]
561 | 189 | CCCCN(CCO)c1nc(N)nc2cn(Cc3ccc(CNC4CCOC(C)C4)cc3OC)nc12 (single isomer, unassigned) [Compound 122]
– | 689 | CCCCN(CCO)c1nc(N)nc2cn(Cc3ccc(CNC4CCOC(C)C4)cc3OC)nc12 (centres unmarked) [Compound 126]
– | 1270 | CCCCN(CCO)c1nc(N)nc2cn(Cc3ccc(CNC4CCOCC4)c4cn[nH]c34)nc12 [Compound 204]
– | 1340 | CCCCN(CCO)c1nc(N)nc2cn(Cc3ccc(CN[C@H]4CCOC4)c4nccnc34)nc12 [Compound 205]
– | 2850 | CCCCN(CCO)c1nc(N)nc2cn(Cc3ccc(CNC4CCOC(C)(C)C4)c4cn[nH]c34)nc12 (centres unmarked) [Compound 209]
– | 1860 | CCCCN(CCO)c1nc(N)nc2cn(Cc3ccc(CNC4CCOCC4)c4ncsc34)nc12 [Compound 210]
